Experimental data as given in patent publication US6936607B2, “2,4,6-Triaminopyrimidines for the treatment of depression and/or anxiety” (H. Lunobeck A/S, priority 2002, dated 2005).

target: T1, human GalR3 receptor (Homo sapiens, UniProt O60755); test: Radioligand binding assay at cloned human GalR3 receptor; conditions: Binding Data; membranes from LM(tk-) cells stably transfected with the human GalR3 receptor
T1 construct: expressed in transfected cells; host or cells: mouse fibroblast LM(tk-) cells, stably transfected; membranes
T1 sequence (O60755 1-368): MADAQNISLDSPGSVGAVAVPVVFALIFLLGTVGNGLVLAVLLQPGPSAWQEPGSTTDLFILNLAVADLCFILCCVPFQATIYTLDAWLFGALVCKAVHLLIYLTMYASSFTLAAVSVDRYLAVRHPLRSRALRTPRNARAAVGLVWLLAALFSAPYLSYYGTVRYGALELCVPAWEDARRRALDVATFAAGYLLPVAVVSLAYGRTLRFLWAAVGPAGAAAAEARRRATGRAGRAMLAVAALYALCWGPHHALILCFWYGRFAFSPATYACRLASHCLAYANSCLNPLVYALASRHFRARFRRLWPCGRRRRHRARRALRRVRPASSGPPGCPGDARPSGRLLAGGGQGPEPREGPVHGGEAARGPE
Method: LM(tk-) cells were stably transfected with the human GalR3 receptor. cDNAs for the human and rat GalR3 receptors were transfected with a G-418 resistant gene into the mouse fibroblast LM(tk-) cell line by a calcium phosphate transfection method (Cullen, 1987). Membranes were harvested from stably transfected LM(tk-) cells. Adherent cells were washed twice in ice-cold phosphate buffered saline (138 mM NaCl, 8.1 mM Na2HPO4, 2.5 mM KCl, 1.2 mM KH2PO4, 0.9 mM CaCl2, 0.5 mM MgCl2, pH 7.4) and lysed by sonication in ice-cold sonication buffer (20 mM Tris-HCl, 5 mM EDTA, pH 7.7). Large particles and debris were cleared by low speed centrifugation (200×g, 5 min, 4° C.). Membranes were collected from the supernatant fraction by centrifugation (32,000×g, 18 min, 4° C.), washed with ice-cold hypotonic buffer, and collected again by centrifugation (32,000×g, 18 min, 4° C.). The final membrane pellet was resuspended by sonication into a small volume of ice-cold binding buffer (˜1 ml for every 5 plates: 10 mM NaCl, 20 mM HEPES, 0.22 mM KH2PO4, 1.26 mM CaCl2, 0.81 mM MgSO4, pH 7.4). Protein concentration was measured by the Bradford method (Bradford, 1976) using Bio-Rad Reagent, with bovine serum albumin as a standard. Membranes were held on ice for up to one hour and used fresh, or flash frozen and stored in liquid nitrogen. Membranes were prepared similarly from CHO cells. The methods to obtain the cDNA of the receptors, express said receptors in heterologous systems, and carry out assays to determine binding affinity are described as follows. Binding assays were performed according to the following published method: human GALR3 (PCT International Publication No. WO 02/060392).

Compared with Cc1ccc(Nc2cc(N(C)C)nc(N3CCN(c4ccccc4F)CC3)n2)cc1 [Example 5, 2-[4-(2-FLUOROPHENYL)-1-PIPERAZINYL]-N^4,N^4-DIMETHYL-N^6-(4-METHYLPHENYL)-4,6-PYRIMIDINEDIAMINE], Cc1ccc(Nc2cc(N(C)C)nc(N3CCN(c4ccccc4Cl)CC3)n2)cc1 [Example 3, 2-[4-(2-CHLOROPHENYL)-1-PIPERAZINYL]-N^4,N^4-DIMETHYL-N^6-(4-METHYLPHENYL)-4,6-PYRIMIDINEDIAMINE] is 4-fold lower in Ki: 117 nM for the first, 29 nM for the second. The second binds more tightly here.

Cc1ccc(Nc2cc(N(C)C)nc(N3CCN(c4ccc(Cl)cc4)CC3)n2)cc1C [Example 23, 2-[4-(4-CHLOROPHENYL)-1-PIPERAZINYL]-N^4-(3,4-DIMETHYLPHENYL)-N^6,N^6-DIMETHYL-4,6-PYRIMIDINEDIAMINE] and Cc1ccc(Nc2cc(N(C)C)nc(N3CCN(c4cccc(Cl)c4)CC3)n2)cc1C [Example 32, 2-[4-(3-CHLOROPHENYL)-1-PIPERAZINYL]-N^4-(3,4-DIMETHYLPHENYL)-N^6,N^6-DIMETHYL-4,6-PYRIMIDINEDIAMINE] are within 1.5-fold of each other in Ki: 129 nM for the first, 97 nM for the second.

Compared with CC1CC(C)CN(c2nc(Nc3cccc(OCc4ccccc4)c3)cc(N(C)C)n2)C1 (stereo not drawn) [Example 38, N^4-[3-(BENZYLOXY)PHENYL]-2-(3,5-DIMETHYL-1-PIPERIDINYL)-N^6,N^6-DIMETHYL-4,6-PYRIMIDINEDIAMINE], C[C@H]1CN(c2nc(Nc3cccc(OCc4ccccc4)c3)cc(N(C)C)n2)C[C@H](C)O1 (racemic) [Example 48, (±)-N^4-[3-(BENZYLOXY)PHENYL]-2-(TRANS-2,6-DIMETHYL MORPHOLINYL)-N^6,N^6-DIMETHYL-4,6-PYRIMIDINEDIAMINE] is 2-fold higher in Ki: 15 nM for the first, 30 nM for the second. The first binds more tightly here.

Compared with CN(C)c1cc(Nc2ccc(Cl)c(Cl)c2)nc(N2CCN(c3ccccc3F)CC2)n1 [Example 29, N^4-(3,4-DICHLOROPHENYL)-2-[4-(2-FLUOROPHENYL)-1-PIPERAZINYL]-N^6,N^6-DIMETHYL-4,6-PYRIMIDINEDIAMINE], Cc1ccc(Nc2cc(N(C)C)nc(N3CCN(c4ccccc4F)CC3)n2)cc1C [Example 19, N^4-(3,4-DIMETHYLPHENYL)-2-[4-(2-FLUOROPHENYL)-1-PIPERAZINYL]-N^6,N^6-DIMETHYL-4,6-PYRIMIDINEDIAMINE] is 4.4-fold higher in Ki: 27 nM for the first, 118 nM for the second.

First: CN(C)c1cc(Nc2ccc(Cl)c(Cl)c2)nc(N2CCN(c3ccc(Cl)cc3)CC2)n1 [Example 54, 2-[4-(4-CHLOROPHENYL)-1-PIPERAZINYL]-N-(3,4-DICHLOROPHENYL)-N^6,N^6-DIMETHYL-4,6-PYRIMIDINEDIAMINE]
Second: COc1cccc(Nc2cc(N(C)C)nc(N3CCN(c4ccc(Cl)cc4)CC3)n2)c1 [Example 15, 2-[4-(4-CHLOROPHENYL)-1-PIPERAZINYL]-N^4-(3-METHOXYPHENYL)-N^6,N^6-DIMETHYL-4,6-PYRIMIDINEDIAMINE]
The Ki of the first is 1.7-fold higher: 150 nM for the first, 88 nM for the second. The second binds more tightly here.

First: CN(C)c1cc(Nc2ccc3c(c2)CCC3)nc(N2CCN(c3cccc(Cl)c3)CC2)n1 [Example 2, 2-[4-(3-CHLOROPHENYL)-1-PIPERAZINYL]-N^4-(2,3-DIHYDRO-1H-INDEN-5-YL)-N^6,N^6-DIMETHYL-4,6-PYRIMIDINEDIAMINE]
Second: CN(C)c1cc(Nc2ccc3c(c2)CCC3)nc(N2CCN(c3ccccc3Cl)CC2)n1 [Example 4, 2-[4-(2-CHLOROPHENYL)-1-PIPERAZINYL]-N^4-(2,3-DIHYDRO-1H-INDEN-5-YL)-N^6,N^6-DIMETHYL-4,6-PYRIMIDINEDIAMINE]
The Ki of the first is 1.6-fold lower: 34 nM for the first, 54 nM for the second.

First: Cc1ccc(Nc2cc(N(C)C)nc(N3CCN(c4c(C(F)(F)F)ccc[n+]4[O-])CC3)n2)cc1 [Example 46, N^4,N^4-DIMETHYL-N^6-(4-METHYLPHENYL)-2-{4-[l-OXIDO-3-(TRIFLUOROMETHYL)-2-PYRIDINYL]-1-PIPERAZINYL}-4,6-PYRIMIDINEDIAMINE]
Second: Cc1ccc(Nc2cc(N(C)C)nc(N3CCN(c4cccc(Cl)c4)CC3)n2)cc1 [Example 1, 2-[4-(3-CHLOROPHENYL)-1-PIPERAZINYL]-N^4,N^4-DIMETHYL-N^6-(4-METHYLPHENYL)-4,6-PYRIMIDINEDIAMINE]
The Ki of the first is 4.1-fold higher: 264 nM for the first, 65 nM for the second. The second binds more tightly here.

First: Cc1ccc(Nc2cc(N(C)C)nc(N3CCN(c4ccccn4)CC3)n2)c(NC(C)C)c1 [Example 45, N^4-[2-(ISOPROPYLAMINO)-4-METHYLPHENYL]-N^6,N^6-DIMETHYL-2-[4-(2-PYRIDINYL)-1-PIPERAZINYL]-4,6-PYRIMIDINEDIAMINE]
Second: CCN(CC)c1cc(C)ccc1Nc1cc(N(C)C)nc(N2CCN(c3ccccn3)CC2)n1 [Example 44, N^4-[2-(DIETHYLAMINO)-4-METHYLPHENYL]-N^6,N^6-DIMETHYL-2-[4-(2-PYRIDINYL)-1-PIPERAZINYL]-4,6-PYRIMIDINEDIAMINE]
The Ki of the first is 1.6-fold higher: 506 nM for the first, 314 nM for the second. The second binds more tightly here.

CN(C)c1cccc(Nc2cc(N(C)C)nc(N3CCN(c4ccccn4)CC3)n2)c1 [Example 28, N^4-[3-(DIMETHYLAMINO)PHENYL]-N^6,N^6-DIMETHYL-2-[4-(2-PYRIDINYL)-1-PIPERAZINYL]-4,6-PYRIMIDINEDIAMINE] and CCn1ccc2ccc(Nc3cc(N(C)C)nc(N4CCN(c5ccccn5)CC4)n3)cc21 [Example 47, N^4-(1-ETHYL-1H-INDOL-6-YL)-N^6,N^6-DIMETHYL-2-[4-(2-PYRIDINYL)-1-PIPERAZINYL]-4,6-PYRIMIDINEDIAMINE] are within 1.5-fold of each other in Ki: 417 nM for the first, 351 nM for the second.

First: CN(C)c1cc(Nc2cccc(OCc3ccccc3)c2)nc(N2CCCCC2)n1 [Example 36, N^4-[3-(BENZYLOXY)PHENYL]-N^6,N^6-DIMETHYL-2-(1-PIPERIDINYL)-4,6-PYRIMIDINEDIAMINE]
Second: CN(C)c1cc(Nc2ccc3c(c2)CCC3)nc(N2CCN(c3ccccc3F)CC2)n1 [Example 12, N^4-(2,3-DIHYDRO-1H-INDEN-5-YL)-2-[4-(2-FLUOROPHENYL)-1-PIPERAZINYL]-N^6,N^6-DIMETHYL-4,6-PYRIMIDINEDIAMINE]
The Ki of the first is 3.3-fold lower: 23 nM for the first, 75 nM for the second.

Going from CN(C)c1cc(Nc2ccc(SC(F)(F)F)c(Cl)c2)nc(N2CCN(c3ccccc3F)CC2)n1 [Example 14, N^4-{3-CHLORO-4-[(TRIFLUOROMETHYL)SULFANYL]PHENYL}-2-[4-(2-FLUOROPHENYL)-1-PIPERAZINYL]-N^6,N^6-DIMETHYL-4,6-PYRIMIDINEDIAMINE] to CN(C)c1cc(Nc2ccc(SC(F)(F)F)c(Cl)c2)nc(N2CCN(c3cccc(Cl)c3)CC2)n1 [Example 20, 2-[4-(3-CHLOROPHENYL)-1-PIPERAZINYL]-N^4-{3-CHLORO-4-[(TRIFLUOROMETHYL) SULFANYL]PHENYL}-N^6,N^6-DIMETHYL-4,6-PYRIMIDINEDIAMINE], the Ki rises from 158 nM to 318 nM (2-fold).

Compared with Cc1ccc(Nc2cc(N3CCN(c4ncccn4)CC3)nc(N3C[C@@H](C)O[C@@H](C)C3)n2)cc1 [Example 52, 2-(CIS-2,6-DIMETHYLMORPHOLINYL)-N-(4-METHYLPHENYL)-6-[4-(2-PYRIMIDINYL)-1-PIPERAZINYL]-4-PYRIMIDINAMINE], CN(C)c1cc(Nc2ccc(C3CCCCC3)cc2)nc(N2CCN(c3ccc(Cl)cc3)CC2)n1 [Example 10, 2-[4-(4-CHLOROPHENYL)-1-PIPERAZINYL]-N^4-(4-CYCLOHEXYLPHENYL)-N^6,N^6-DIMETHYL-4,6-PYRIMIDINEDIAMINE] is 2.5-fold lower in Ki: 117 nM for the first, 47 nM for the second. The second binds more tightly here.
